Data published in PubChem BioAssay AID248 (DTP/NCI, 2004).
Several values for one entry are separate records, joined by “and”; a condition that tells them apart may be missing. Equal values may be shown once. Toxic doses and inconclusive results are not listed. No stated cut-off is given here; in the data, active means T/C of 150% or more; inactive means T/C below 125%.

Test system: L1210 leukemia ip in BDF1 mice, survival T/C
Test: NCI In Vivo Anticancer Drug Screen. Data for tumor model L1210 Leukemia (intraperitoneal) in B6D2F1 (BDF1) mice
Settings: higher = longer survival
Summary of the method: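 Read-out is survival time, reported as the treated-group measurement over the vehicle-control measurement.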

[1] = endpoint: mean survival time, dose: 100.0 mg/kg/injection, schedule: Q04DX003 (ip), vehicle: saline with Tween-80
[2] = endpoint: mean survival time, dose: 200.0 mg/kg/injection, schedule: Q04DX003 (ip), vehicle: saline with Tween-80
[3] = endpoint: mean survival time, dose: 400.0 mg/kg/injection, schedule: Q04DX003 (ip), vehicle: saline with Tween-80
[4] = endpoint: mean survival time, dose: 100.0 mg/kg/injection, schedule: Q01DX009 (ip), vehicle: gum acacia
[5] = endpoint: mean survival time, dose: 100.0 mg/kg/injection, schedule: Q04DX003 (ip), vehicle: Klucel (hydroxypropylcellulose) (HPC)
[6] = endpoint: mean survival time, dose: 200.0 mg/kg/injection, schedule: Q01DX009 (ip), vehicle: gum acacia
[7] = endpoint: mean survival time, dose: 200.0 mg/kg/injection, schedule: Q04DX003 (ip), vehicle: Klucel (hydroxypropylcellulose) (HPC)
[8] = endpoint: mean survival time, dose: 400.0 mg/kg/injection, schedule: Q01DX009 (ip), vehicle: gum acacia
[9] = endpoint: mean survival time, dose: 400.0 mg/kg/injection, schedule: Q04DX003 (ip), vehicle: Klucel (hydroxypropylcellulose) (HPC)
[10] = endpoint: mean survival time, dose: 100.0 mg/kg/injection, schedule: Q04DX002 (ip), vehicle: gum acacia
[11] = endpoint: mean survival time, dose: 100.0 mg/kg/injection, schedule: Q04DX003 (ip), vehicle: gum acacia
[12] = endpoint: mean survival time, dose: 200.0 mg/kg/injection, schedule: Q04DX002 (ip), vehicle: gum acacia
[13] = endpoint: mean survival time, dose: 200.0 mg/kg/injection, schedule: Q04DX003 (ip), vehicle: gum acacia
[14] = endpoint: mean survival time, dose: 400.0 mg/kg/injection, schedule: Q04DX003 (ip), vehicle: gum acacia
[15] = endpoint: mean survival time, dose: 100.0 mg/kg/injection, schedule: Q01DX001 (ip), vehicle: saline
[16] = endpoint: mean survival time, dose: 200.0 mg/kg/injection, schedule: Q01DX001 (ip), vehicle: saline
[17] = endpoint: mean survival time, dose: 400.0 mg/kg/injection, schedule: Q01DX001 (ip), vehicle: saline
[18] = endpoint: mean survival time, dose: 100.0 mg/kg/injection, schedule: Q04DX003 (ip), vehicle: saline
[19] = endpoint: mean survival time, dose: 200.0 mg/kg/injection, schedule: Q04DX003 (ip), vehicle: saline
[20] = endpoint: mean survival time, dose: 100.0 mg/kg/injection, schedule: Q01DX001 (ip), vehicle: Klucel (hydroxypropylcellulose) (HPC)
[21] = endpoint: mean survival time, dose: 200.0 mg/kg/injection, schedule: Q01DX001 (ip), vehicle: Klucel (hydroxypropylcellulose) (HPC)

Measured: T/C

CCOC(=O)C(=CN1CCOCC1)C(=O)OCC
inactive: endpoint: mean survival time, dose: 100.0 mg/kg/injection, schedule: Q01DX009 (ip), vehicle: saline with Tween-80 100 % of control | [1] 120 % of control | endpoint: mean survival time, dose: 200.0 mg/kg/injection, schedule: Q01DX009 (ip), vehicle: saline with Tween-80 100 % of control | [2] 102 % of control | endpoint: mean survival time, dose: 400.0 mg/kg/injection, schedule: Q01DX009 (ip), vehicle: saline with Tween-80 100 % of control | [3] 98 % of control

CC(C)(CO)N=Cc1ccccc1O.CC(C)(CO)N=Cc1ccccc1O.[Cu].[Cu]
inactive: endpoint: mean survival time, dose: 75.0 mg/kg/injection, schedule: Q01DX001 (ip), vehicle: other 98 % of control | endpoint: mean survival time, dose: 150.0 mg/kg/injection, schedule: Q01DX001 (ip), vehicle: other 96 % of control | endpoint: mean survival time, dose: 300.0 mg/kg/injection, schedule: Q01DX001 (ip), vehicle: other 98 % of control

Cc1c(Cl)cccc1NC(=O)c1ccc(Cl)c(Cl)c1
inactive: [4] 88 % of control | [5] 103 % of control | [6] 88 % of control | [7] 90 % of control | [8] 91 % of control | [9] 95 % of control

O=C(Nc1ccccc1C(F)(F)F)OCc1ccco1
inactive: endpoint: mean survival time, dose: 100.0 mg/kg/injection, schedule: Q01DX001 (ip), vehicle: gum acacia 102 % of control and 91 % of control | [4] 100 % of control | [10] 95 % of control and 101 % of control | [11] 94 % of control and 99 % of control | endpoint: mean survival time, dose: 200.0 mg/kg/injection, schedule: Q01DX001 (ip), vehicle: gum acacia 98 % of control and 105 % of control | [6] 97 % of control | [12] 99 % of control and 108 % of control | [13] 96 % of control and 92 % of control | endpoint: mean survival time, dose: 400.0 mg/kg/injection, schedule: Q01DX001 (ip), vehicle: gum acacia 94 % of control and 95 % of control | [8] 105 % of control | endpoint: mean survival time, dose: 400.0 mg/kg/injection, schedule: Q04DX002 (ip), vehicle: gum acacia 99 % of control and 101 % of control | [14] 108 % of control and 92 % of control

CC(C)C(C=NCC(CCN(C)C)(c1ccc2ccccc2c1)C(C)C)(CCN(C)C)c1ccc2ccccc2c1 (centres undefined)
inactive: endpoint: mean survival time, dose: 6.25 mg/kg/injection, schedule: Q04DX002 (ip), vehicle: saline + alcohol 87 % of control | endpoint: mean survival time, dose: 12.5 mg/kg/injection, schedule: Q04DX002 (ip), vehicle: saline + alcohol 93 % of control | endpoint: mean survival time, dose: 25.0 mg/kg/injection, schedule: Q04DX002 (ip), vehicle: saline + alcohol 93 % of control

Cc1nc(N)[nH]c(=O)c1NC(=O)CCc1ccccc1
inactive: endpoint: mean survival time, dose: 6.25 mg/kg/injection, schedule: Q01DX001 (ip), vehicle: saline with Tween-80 105 % of control | endpoint: mean survival time, dose: 12.5 mg/kg/injection, schedule: Q01DX001 (ip), vehicle: saline with Tween-80 101 % of control | endpoint: mean survival time, dose: 25.0 mg/kg/injection, schedule: Q01DX001 (ip), vehicle: saline with Tween-80 98 % of control

CC(C)N=C(NC(C)C)N1CC1
inactive: endpoint: mean survival time, dose: 10.0 mg/kg/injection, schedule: Q01DX009 (ip), vehicle: saline 106 % of control | endpoint: mean survival time, dose: 20.0 mg/kg/injection, schedule: Q01DX001 (ip), vehicle: saline 104 % of control | endpoint: mean survival time, dose: 20.0 mg/kg/injection, schedule: Q01DX009 (ip), vehicle: saline 105 % of control | endpoint: mean survival time, dose: 40.0 mg/kg/injection, schedule: Q01DX001 (ip), vehicle: saline 104 % of control | endpoint: mean survival time, dose: 40.0 mg/kg/injection, schedule: Q01DX009 (ip), vehicle: saline 100 % of control

CC1(C)CC(=O)NN1C(=O)c1ccccc1
inactive: [1] 108 % of control | [2] 103 % of control | [3] 102 % of control

CCN(CC)c1ccc2[nH]c3c(C(N)=O)cc(=O)c(=O)c=3oc2c1
inactive: endpoint: median survival time, dose: 12.5 mg/kg/injection, schedule: Q01DX009 (ip), vehicle: saline with Tween-80 101 % of control | endpoint: median survival time, dose: 25.0 mg/kg/injection, schedule: Q01DX009 (ip), vehicle: saline with Tween-80 120 % of control | endpoint: median survival time, dose: 50.0 mg/kg/injection, schedule: Q01DX009 (ip), vehicle: saline with Tween-80 113 % of control | endpoint: median survival time, dose: 100.0 mg/kg/injection, schedule: Q01DX009 (ip), vehicle: saline with Tween-80 111 % of control | endpoint: median survival time, dose: 200.0 mg/kg/injection, schedule: Q01DX009 (ip), vehicle: saline with Tween-80 98 % of control

N#CCCn1c2ccccc2c2ccccc21
inactive: endpoint: mean survival time, dose: 50.0 mg/kg/injection, schedule: Q01DX001 (ip), vehicle: saline 96 % of control | endpoint: mean survival time, dose: 50.0 mg/kg/injection, schedule: Q04DX002 (ip), vehicle: gum acacia 91 % of control | [15] 102 % of control | [10] 91 % of control | [16] 102 % of control | [12] 98 % of control | [17] 96 % of control

Oc1ccccc1C=NCCCN=Cc1ccccc1O
inactive: [4] 104 % of control | [11] 98 % of control | [6] 101 % of control | [13] 95 % of control | [8] 101 % of control | [14] 98 % of control

CC(=O)c1ccccc1OCC(O)CN1CCN(c2ccccc2Cl)CC1 (centres undefined)
inactive: endpoint: mean survival time, dose: 37.5 mg/kg/injection, schedule: Q01DX009 (ip), vehicle: saline with Tween-80 97 % of control | endpoint: mean survival time, dose: 37.5 mg/kg/injection, schedule: Q04DX003 (ip), vehicle: saline with Tween-80 105 % of control | endpoint: mean survival time, dose: 75.0 mg/kg/injection, schedule: Q01DX009 (ip), vehicle: saline with Tween-80 89 % of control | endpoint: mean survival time, dose: 75.0 mg/kg/injection, schedule: Q04DX003 (ip), vehicle: saline with Tween-80 108 % of control | endpoint: mean survival time, dose: 150.0 mg/kg/injection, schedule: Q01DX009 (ip), vehicle: saline with Tween-80 93 % of control | endpoint: mean survival time, dose: 150.0 mg/kg/injection, schedule: Q04DX003 (ip), vehicle: saline with Tween-80 94 % of control

O=[N+]([O-])c1cc([N+](=O)[O-])c(NN(c2ccccc2)c2cccc3ccccc23)c([N+](=O)[O-])c1
inactive: endpoint: mean survival time, dose: 50.0 mg/kg/injection, schedule: Q01DX009 (ip), vehicle: Klucel (hydroxypropylcellulose) (HPC) 101 % of control | endpoint: mean survival time, dose: 100.0 mg/kg/injection, schedule: Q01DX009 (ip), vehicle: Klucel (hydroxypropylcellulose) (HPC) 101 % of control | [5] 96 % of control | endpoint: mean survival time, dose: 200.0 mg/kg/injection, schedule: Q01DX009 (ip), vehicle: Klucel (hydroxypropylcellulose) (HPC) 102 % of control | [7] 94 % of control | endpoint: mean survival time, dose: 400.0 mg/kg/injection, schedule: Q01DX009 (ip), vehicle: Klucel (hydroxypropylcellulose) (HPC) 98 % of control | [9] 94 % of control

COC1(c2ccccc2)OC12CC1CCC2C1 (centres undefined)
inactive: endpoint: mean survival time, dose: 50.0 mg/kg/injection, schedule: Q04DX003 (ip), vehicle: saline 98 % of control | [15] 95 % of control | [18] 100 % of control | [16] 101 % of control | [19] 100 % of control | [17] 95 % of control

O=C(Nc1ccc(NS(=O)(=O)c2ccccc2)cc1Cl)c1ccccc1
inactive: endpoint: mean survival time, dose: 50.0 mg/kg/injection, schedule: Q01DX001 (ip), vehicle: Klucel (hydroxypropylcellulose) (HPC) 104 % of control | [20] 108 % of control | [21] 90 % of control

CCOc1ccc2c(ccc(/C=C\c3cc(C)c4cccnc4c3O)[n+]2C)c1
inactive: endpoint: mean survival time, dose: 25.0 mg/kg/injection, schedule: Q01DX001 (ip), vehicle: carboxymethylcellulose (CMC) 104 % of control | endpoint: mean survival time, dose: 50.0 mg/kg/injection, schedule: Q01DX001 (ip), vehicle: carboxymethylcellulose (CMC) 109 % of control | endpoint: mean survival time, dose: 100.0 mg/kg/injection, schedule: Q01DX001 (ip), vehicle: carboxymethylcellulose (CMC) 93 % of control

O=C(O)c1ccnc(-c2ccc(Cl)cc2)c1
inactive: [18] 90 % of control | [19] 92 % of control

CCC(CN)(c1cccs1)c1cccs1
inactive: [20] 87 % of control | [21] 97 % of control | endpoint: mean survival time, dose: 400.0 mg/kg/injection, schedule: Q01DX001 (ip), vehicle: Klucel (hydroxypropylcellulose) (HPC) 103 % of control
